Where no end group is shown, it is not given here.
Tests used:
[1] = test system: endothelial cells; experiment: Adhesion blocking assay on GST-VCIP-RGD-coated dishes; assay type: cell-based, human
[2] = molecular target: T1, PAP2b (Homo sapiens, UniProt O14495); details: membrane fraction of 293T cells over-expressing PAP2b; cited from earlier work
T1 construct: expressed in transfected cells; host or cells: 293T cells (membrane fraction)
T1 sequence (O14495 1-311): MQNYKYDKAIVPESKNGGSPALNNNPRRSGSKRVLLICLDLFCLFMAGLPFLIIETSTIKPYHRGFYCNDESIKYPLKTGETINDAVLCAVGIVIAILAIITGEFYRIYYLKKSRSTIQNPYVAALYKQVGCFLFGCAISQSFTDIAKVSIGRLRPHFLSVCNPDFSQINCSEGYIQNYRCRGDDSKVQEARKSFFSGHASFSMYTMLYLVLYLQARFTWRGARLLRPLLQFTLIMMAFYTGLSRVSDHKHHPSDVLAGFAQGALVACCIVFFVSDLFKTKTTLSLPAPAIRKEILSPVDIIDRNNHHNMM

[3] = test system: VCIP; experiment: VCIP mRNA induction by growth factors and cytokines in monolayer cells; assay type: cell-based, human
Method: FIGS. 1A-M show expression analysis and predicted amino acid sequence of VEGF and type I collagen inducible protein (VCIP). FIG. 1A: HUVECs were embedded into three-dimensional type I collagen gel in the presence of 20% adult human serum, 1× ITS and stimulated with VEGF^165 (100 ng/ml). Total RNA was prepared at the indicated time points. Northern blots were hybridized with a fragment of the VCIP (clone-33A) cDNA probe. The transcript size (3.4 kb) is indicated on the right. The numbers at the bottom of the gel represent the fold increase in VCIP mRNA levels, as compared with untreated cells. […] Total RNA was isolated at indicated time points and subjected to VCIP northern blot analysis. […] FIG. 1E: Poly(A)^+ RNA prepared from various human tissues was subjected to VCIP northern blot analysis by hybridization with the clone-33A cDNA probe. FIG. 1F: The blot shown in FIG. 1E was re-hybridized with a GAPDH probe, showing that equal amounts of RNA were loaded across the lanes. FIG. 1G: Detection of VCIP mRNA by RT-PCR (20 cycles): monolayer endothelial cells were treated for 30 min with: (1) untreated, (2) bFGF (20 ng/ml), (3) VEGF^165 (100 ng/ml), (4) PMA (20 ng/ml), (5) bFGF (20 ng/ml)+VEGF (100 ng/ml), (6) bFGF (20 ng/ml)+PMA (20 ng/ml), (7) VEGF (100 ng/ml)+PMA (20 ng/ml) and (8) bFGF (20 ng/ml)+VEGF (100 ng/ml)+PMA (20 ng/ml). FIGS. 1H-J: RT-PCR analysis of uPAR mRNA (FIG. 1H), β-actin mRNA (FIG. 11) and GAPDH mRNA levels (FIG. 1J) were carried out under the same conditions as described in FIG. 1G. All experiments were repeated at least three times, with similar results. FIG. 1K: Inserts from six recombinant_phage clones are shown, and the relative position of clone 33A is indicated. FIG. 1L: The complete predicted amino acid sequence of VCIP. The putative transmembrane segments are underlined. The N-linked glycosylation site is indicated by an asterisk. The lipid phosphatase catalytic domain is indicated by bold letters and underlined, and the RGD motif is boxed. FIG. 1M: The amino acid sequence of human VCIP (top) is aligned with other proteins containing lipid phosphatase-like catalytic motifs.
FIGS. 3A-F show VCIP induction by growth factors and cytokines. Indicated monolayer cells were stimulated with various growth factors and cytokines for 6 h in media M199 containing 10% serum+1× ITS. The concentrations of cytokines used were optimized according to their ability to induce Erk2 phosphorylation in western blot analysis: VEGF^165 (100 ng/ml), EGF (20 ng/ml), bFGF (30 ng/ml), TNF-α (15 ng/ml), PMA (10 ng/ml) and IL-1β (25 ng/ml). Total RNA (20 μg per lane) was subjected to northern blot analysis by hybridization with the indicated probes. The uPAR northern blot was included as a control for the cytokines used. Ethidium bromide-stained gels show equal amounts of RNA used (FIGS. 3C and F). Data shown are representative of those obtained in two or three separate experiments.
VCIP mRNA was most strongly expressed in human heart and placenta, tissues that are highly vascularized (FIG. 1E). Next, expression of VCIP in monolayer endothelial cells treated with bFGF, VEGF and PMA was examined (FIG. 1G). […] This pattern of regulation was identical to that of the human receptor for urokinase plasminogen activator (uPAR) expression (FIG. 1H). β-actin and GAPDH were included as controls and were not regulated under any of these conditions (FIGS. 1I and J).
To examine VCIP expression by other cell types, endothelial, smooth muscle and epithelial cells (A431) were stimulated in monolayer with various growth factors and cytokines for 6 h. Total RNA was then isolated and subjected to northern blot analysis for VCIP and uPAR (FIG. 3).

[4] = test system: endothelial cells; experiment: Adhesion of endothelial cells to wells coated with GST fusion proteins; assay type: cell-based, human; details: pretreatment 20 μg/ml for 1 h and continued exposure
Method: FIG. 10A: Affinity purified GST-fusion proteins were resolved on SDS±PAGE and stained with Coomassie Blue. FIG. 10B: Integrins were immobilized onto 96-well plates, and various GST-fusion proteins (ligands) were allowed to bind. Bound ligands were incubated with anti-GST antibodies, appropriate substrate added and the color intensity measured. OD values <0.05 were considered to be background binding. Data are expressed as mean±SD (n=4). FIG. 10C: Dose-dependent binding of αvβ3 integrin with recombinant GST-VCIP-RGD. FIGS. 10D-F: Representative photomicrographs of adhesion and spreading of endothelial cells replated onto dishes coated with either fibronectin (FIG. 9D), vitronectin (FIG. 9E) or GST-VCIP-RGD (FIG. 9F). […] Attached cells were stained, washed and absorbances of eluted dyes measured. […] Attached cells were stained, washed and absorbances of eluted dyes determined. […] Data are expressed as mean±S.D.; diamond, P<0.01; asterisk, P<0.001. […]
For adhesion blocking assays, endothelial cells were detached, washed with PBS and resuspended in M199 media containing 1 mM CaCl2 and 1 mM MgCl2 in the absence of serum or growth factors. […] Absorbances were measured at 540 nm.
Next, the capacity of VCIP-RGD to bind endothelial cell integrins was evaluated by determining the effect of GST-VCIP fusion proteins on cell adhesion and spreading.

[5] = test system: p120catenin; experiment: Far-western assay with GST-PAP2b-cyto fusion protein; assay type: binding, human; details: 2 μg/ml fusion protein
Method: FIGS. 17A-H show interaction of PAP2b/VCIP with p120 catenin in endothelial cells. FIGS. 17A-B: Clarified cell lysates were prepared from endothelial cells infected with indicated PAP2b retroviral constructs A-E as shown in FIG. 14 and subjected to immunoprecipitation with: anti-HA (lanes 1, 2, 4, 5 and 6) or anti-p120 catenin (lane 3) and analyzed by immunoblotting with the indicated antibodies. FIGS. 17C-H: Far western analysis. Endothelial cells were solubilized in RIPA buffer, and immunoprecipitated using indicated antibodies (5 μg/1.5 mg protein). The membrane shown in FIG. 17C was incubated with 2 μg/ml of Gst-PAP2b-cyto fusion protein for 1 hour, washed with 1×TBS+tween (0.1%) and analyzed by immunoblotting with anti-Gst monoclonal antibodies (2 μg/ml). Individual lanes from the blot was excised and probed with: anti-VE-cadherin (FIG. 17D), anti-p120ctn (FIG. 17E), anti-β-catenin (FIG. 17F), anti-γ-catenin (FIG. 17G), and β1-integrin (FIG. 17H) monoclonal antibodies. […]
To further substantiate that the C-terminal cytoplasmic domain of PAP2b was indeed the region involved in the interaction, far-western assay (Wary et al., 1996) was performed using recombinant affinity purified GST-PAP2b-cyto fusion protein as follows. […] After rinsing with TBS, pH 7.5, the membrane was incubated with anti-Gst mouse monoclonal antibodies and detected as previously described (Schor et al., 1996). […]

[6] = A431 epidermoid carcinoma cells, 6 h, northern blot
[7] = monolayer endothelial cells, RT-PCR, 30 min

O=C(O)CN(CCN(CC(=O)O)CC(=O)O)CC(=O)O [EDTA, reference compound]
detachment of endothelial cells adhered to VCIP ([1]; 2.5 mM (pH 7.4) for 5 min): caused the cells to detach from tissue culture dishes

CCN1C(=O)C=CC1=O [N-ethylmaleimide]
effect on phosphatase activity against phosphatidic acid [2]: insensitive

CCCCCCCCCCCCCC(=O)O[C@@H]1[C@@H](C)[C@@]2(O)[C@@H](C=C(CO)C[C@]3(O)C(=O)C(C)=C[C@@H]23)[C@@H]2C(C)(C)[C@]12OC(C)=O [PMA]
induction of VCIP expression [3, 6]: strongly induced
induction of VCIP expression ([3]; AoSMC, 6 h, northern blot): did not
induction of VCIP expression ([3]; CASMCs, 6 h, northern blot): Neither PMA nor VEGF^165 induced expression of VCIP
induction of VCIP expression [3, 7]: equally able to induce expression of VCIP

C[C@@H]1C[C@@H]([C@H](O)CC2CC(=O)NC(=O)C2)C(=O)[C@@H](C)C1 [cycloheximide, reference compound]
total number of attached cells [4]: did not decrease the total number of attached cells

CC(C)NCC(O)COc1cccc2ccccc12 (stereo not shown) [propranolol]
effect on phosphatase activity against phosphatidic acid [2]: blocked

CCCCCCCCCCCCC/C=C/[C@@H](O)[C@@H](N)CO [sphingosine]
effect on phosphatase activity against phosphatidic acid [2]: blocked

GST-PAP2b-c-cyto: recombinant affinity purified GST fusion of the C-terminal cytoplasmic domain of PAP2b (LSLPAPAIRKEILSPVDIIDRNNHHNMM; also: GST fusion)
interaction with p120catenin [5]: sufficient to interact with p120catenin
reaction with VE cadherin, β- and γ-catenin, or β1-integrin polypeptides [5]: did not react

NYRCRGDDSKVQE (also: acetylated) [acetylated NYRCRGDDSKVQE (VCIP-RGD)]
detachment of attached cells from VCIP-RGD-coated wells ([1]; 5 nM): eventually completely detached from the wells
time until attached cells rounded up ([1]; 5 nM, cells plated on VCIP-RGD-coated wells): ≤ 5 min

TNF-α
induction of VCIP expression [3, 6]: had no effect

bFGF: Basic Fibroblast growth factor
induction of VCIP expression [3, 6]: had no effect
induction of VCIP expression [3, 7]: equally able to induce expression of VCIP

From US20050002904A1, “Uses of vascular endothelial growth factor and type I collagen inducible protein (VCIP)” (priority 2003, published 2005)
